Like-named read-outs stand apart in the source and are kept apart here.
Key:
PTP1B = target: T1, PTP1B (Homo sapiens, UniProt P18031); assay: Selectivity panel: PTP1B inhibition; type: biochemical
T1 sequence (P18031 1-435): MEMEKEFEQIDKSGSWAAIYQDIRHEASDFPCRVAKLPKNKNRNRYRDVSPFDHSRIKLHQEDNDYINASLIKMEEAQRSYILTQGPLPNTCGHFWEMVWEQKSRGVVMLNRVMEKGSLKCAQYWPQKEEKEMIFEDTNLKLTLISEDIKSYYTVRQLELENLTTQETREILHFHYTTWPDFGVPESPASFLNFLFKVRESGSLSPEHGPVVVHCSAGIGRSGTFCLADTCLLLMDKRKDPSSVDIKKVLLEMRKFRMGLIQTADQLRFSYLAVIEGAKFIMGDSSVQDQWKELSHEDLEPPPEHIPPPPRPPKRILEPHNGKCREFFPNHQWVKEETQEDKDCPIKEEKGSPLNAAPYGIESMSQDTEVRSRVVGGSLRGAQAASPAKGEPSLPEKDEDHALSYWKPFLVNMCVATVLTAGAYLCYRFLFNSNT

Tc-Ptp = target: T2, Tc-Ptp (Homo sapiens, UniProt P17706); assay: Selectivity panel: Tc-Ptp inhibition; type: biochemical
T2 sequence (P17706 1-415): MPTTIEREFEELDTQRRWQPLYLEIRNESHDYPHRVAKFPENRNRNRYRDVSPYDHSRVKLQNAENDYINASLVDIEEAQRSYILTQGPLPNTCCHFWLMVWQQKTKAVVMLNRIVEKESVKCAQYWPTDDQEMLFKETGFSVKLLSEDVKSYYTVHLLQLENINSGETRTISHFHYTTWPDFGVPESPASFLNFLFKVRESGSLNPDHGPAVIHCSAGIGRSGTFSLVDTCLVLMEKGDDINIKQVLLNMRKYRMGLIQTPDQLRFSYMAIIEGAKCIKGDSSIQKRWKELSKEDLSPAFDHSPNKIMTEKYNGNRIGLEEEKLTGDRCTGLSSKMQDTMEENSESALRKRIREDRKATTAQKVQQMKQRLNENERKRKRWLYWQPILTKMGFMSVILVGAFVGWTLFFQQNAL

LAR = LAR (Homo sapiens, UniProt P10586); assay: Selectivity panel: LAR inhibition; type: biochemical
LAR, sequence (P10586 30-1907): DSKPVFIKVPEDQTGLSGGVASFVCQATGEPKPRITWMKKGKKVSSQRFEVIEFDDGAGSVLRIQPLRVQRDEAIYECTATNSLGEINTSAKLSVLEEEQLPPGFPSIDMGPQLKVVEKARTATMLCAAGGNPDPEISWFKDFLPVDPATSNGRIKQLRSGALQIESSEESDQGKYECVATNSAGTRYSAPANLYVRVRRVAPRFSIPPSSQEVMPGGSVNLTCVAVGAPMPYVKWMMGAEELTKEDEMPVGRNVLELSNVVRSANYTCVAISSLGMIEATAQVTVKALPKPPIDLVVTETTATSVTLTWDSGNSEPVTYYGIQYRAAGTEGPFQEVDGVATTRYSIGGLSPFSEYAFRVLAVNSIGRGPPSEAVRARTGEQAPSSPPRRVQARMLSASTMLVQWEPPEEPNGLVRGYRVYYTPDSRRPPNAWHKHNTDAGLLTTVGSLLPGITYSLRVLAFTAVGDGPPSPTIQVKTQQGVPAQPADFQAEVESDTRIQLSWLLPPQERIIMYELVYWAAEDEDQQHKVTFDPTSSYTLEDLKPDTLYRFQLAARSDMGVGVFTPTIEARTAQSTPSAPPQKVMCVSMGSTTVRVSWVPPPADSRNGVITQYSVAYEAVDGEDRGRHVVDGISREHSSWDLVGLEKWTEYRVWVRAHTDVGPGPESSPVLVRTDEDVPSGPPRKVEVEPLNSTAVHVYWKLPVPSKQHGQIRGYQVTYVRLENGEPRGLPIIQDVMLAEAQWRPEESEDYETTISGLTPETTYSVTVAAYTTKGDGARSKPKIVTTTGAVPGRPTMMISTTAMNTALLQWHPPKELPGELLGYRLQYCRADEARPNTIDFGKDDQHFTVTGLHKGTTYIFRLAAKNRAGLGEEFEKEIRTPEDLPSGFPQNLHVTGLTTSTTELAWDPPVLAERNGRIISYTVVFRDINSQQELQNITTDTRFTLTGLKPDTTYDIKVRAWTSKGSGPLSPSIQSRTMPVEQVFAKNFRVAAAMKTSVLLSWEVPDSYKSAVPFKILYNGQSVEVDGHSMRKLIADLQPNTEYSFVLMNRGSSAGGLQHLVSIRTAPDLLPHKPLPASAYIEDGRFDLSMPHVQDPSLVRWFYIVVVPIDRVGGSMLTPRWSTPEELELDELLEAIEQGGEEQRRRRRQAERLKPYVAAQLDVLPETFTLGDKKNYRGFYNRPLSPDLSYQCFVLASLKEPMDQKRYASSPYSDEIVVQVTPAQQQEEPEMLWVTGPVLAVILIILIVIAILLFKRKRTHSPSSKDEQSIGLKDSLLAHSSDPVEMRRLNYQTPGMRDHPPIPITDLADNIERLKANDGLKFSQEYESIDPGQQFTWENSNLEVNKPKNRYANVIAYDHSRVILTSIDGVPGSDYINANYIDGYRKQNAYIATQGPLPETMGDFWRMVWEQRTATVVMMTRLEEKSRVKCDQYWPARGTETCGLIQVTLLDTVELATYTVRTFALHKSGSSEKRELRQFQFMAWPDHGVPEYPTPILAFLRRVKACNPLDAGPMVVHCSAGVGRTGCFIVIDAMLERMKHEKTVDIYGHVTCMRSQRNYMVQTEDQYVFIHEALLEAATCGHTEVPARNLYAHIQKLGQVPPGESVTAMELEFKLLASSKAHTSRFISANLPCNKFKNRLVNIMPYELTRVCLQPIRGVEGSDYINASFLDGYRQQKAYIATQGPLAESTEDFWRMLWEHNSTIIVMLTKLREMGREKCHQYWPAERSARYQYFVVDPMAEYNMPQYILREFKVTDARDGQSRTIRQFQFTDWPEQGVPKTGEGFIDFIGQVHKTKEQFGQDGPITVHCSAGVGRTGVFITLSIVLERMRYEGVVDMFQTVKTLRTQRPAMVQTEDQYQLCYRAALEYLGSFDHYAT

CD45 = target: T3, CD45 (Homo sapiens, UniProt P08575); assay: Selectivity panel: CD45 inhibition; type: biochemical
T3 sequence (P08575 26-1306): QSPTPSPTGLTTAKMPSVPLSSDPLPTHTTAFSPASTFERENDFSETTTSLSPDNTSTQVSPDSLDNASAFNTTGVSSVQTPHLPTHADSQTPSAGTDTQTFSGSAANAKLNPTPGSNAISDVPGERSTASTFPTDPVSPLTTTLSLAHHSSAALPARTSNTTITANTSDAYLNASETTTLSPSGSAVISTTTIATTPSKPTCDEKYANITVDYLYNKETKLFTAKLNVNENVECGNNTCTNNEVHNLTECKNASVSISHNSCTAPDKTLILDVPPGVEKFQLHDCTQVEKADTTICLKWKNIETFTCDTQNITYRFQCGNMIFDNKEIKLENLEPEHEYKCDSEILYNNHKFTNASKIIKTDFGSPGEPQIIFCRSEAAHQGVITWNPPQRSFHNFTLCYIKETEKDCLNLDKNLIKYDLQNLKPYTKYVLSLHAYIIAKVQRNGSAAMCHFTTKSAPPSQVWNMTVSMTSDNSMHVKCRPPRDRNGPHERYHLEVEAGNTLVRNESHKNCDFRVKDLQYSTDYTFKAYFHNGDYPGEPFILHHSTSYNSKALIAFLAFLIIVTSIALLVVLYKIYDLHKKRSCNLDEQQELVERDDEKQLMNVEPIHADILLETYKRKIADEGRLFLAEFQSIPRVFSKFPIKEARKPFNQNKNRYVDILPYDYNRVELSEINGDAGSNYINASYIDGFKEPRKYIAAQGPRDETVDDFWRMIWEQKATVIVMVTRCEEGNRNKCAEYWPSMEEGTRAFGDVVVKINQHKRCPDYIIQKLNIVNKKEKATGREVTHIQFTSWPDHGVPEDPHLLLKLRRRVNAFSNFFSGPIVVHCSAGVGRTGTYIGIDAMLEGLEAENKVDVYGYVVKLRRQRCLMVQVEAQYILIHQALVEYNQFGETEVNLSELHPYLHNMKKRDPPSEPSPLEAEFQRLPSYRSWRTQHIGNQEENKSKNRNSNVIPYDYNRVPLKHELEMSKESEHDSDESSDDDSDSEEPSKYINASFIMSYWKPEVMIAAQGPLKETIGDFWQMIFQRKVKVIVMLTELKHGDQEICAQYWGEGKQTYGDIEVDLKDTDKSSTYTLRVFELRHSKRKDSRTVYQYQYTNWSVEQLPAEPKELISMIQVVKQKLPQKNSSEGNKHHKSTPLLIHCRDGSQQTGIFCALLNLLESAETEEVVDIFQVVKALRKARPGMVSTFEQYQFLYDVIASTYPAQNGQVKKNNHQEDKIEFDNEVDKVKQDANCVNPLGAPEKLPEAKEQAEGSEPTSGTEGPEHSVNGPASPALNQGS

Mtb PtpB [1] = assay: biochemical; type: biochemical, Mycobacterium tuberculosis
Mtb PtpB [2] = target: Mtb PtpB (Mycobacterium tuberculosis, UniProt I6WXK4); assay: biochemical; type: biochemical
Mtb PtpB (Mycobacterium tuberculosis, UniProt I6WXK4), sequence (I6WXK4 whole entry, looked up): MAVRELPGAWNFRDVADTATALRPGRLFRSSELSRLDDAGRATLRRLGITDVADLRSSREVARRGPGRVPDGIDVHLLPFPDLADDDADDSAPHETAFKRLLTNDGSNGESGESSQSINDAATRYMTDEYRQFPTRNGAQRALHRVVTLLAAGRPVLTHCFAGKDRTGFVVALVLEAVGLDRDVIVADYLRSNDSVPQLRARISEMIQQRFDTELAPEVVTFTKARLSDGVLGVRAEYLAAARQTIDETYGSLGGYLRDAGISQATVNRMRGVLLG

[3] = system: panel of human tyrosine and dual-specificity phosphatases; type: biochemical
VHR = VHR (Homo sapiens, UniProt P51452); assay: Selectivity panel: VHR inhibition; type: biochemical
VHR, sequence (P51452 whole entry): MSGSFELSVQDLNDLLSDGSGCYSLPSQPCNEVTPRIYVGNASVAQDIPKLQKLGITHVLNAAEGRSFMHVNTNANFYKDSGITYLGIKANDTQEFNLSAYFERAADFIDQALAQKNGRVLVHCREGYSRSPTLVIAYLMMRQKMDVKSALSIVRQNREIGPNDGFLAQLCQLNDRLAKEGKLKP

[4] = target: Mycobacterium tuberculosis phosphatase PtpA (Mycobacterium tuberculosis, UniProt P9WIA1); assay: PtpA continuous inhibition assay with pNPP substrate; type: biochemical; conditions: PtpA dose-response curve, variable slope (GraphPad Prism)
Mycobacterium tuberculosis phosphatase PtpA, sequence (P9WIA1 whole entry): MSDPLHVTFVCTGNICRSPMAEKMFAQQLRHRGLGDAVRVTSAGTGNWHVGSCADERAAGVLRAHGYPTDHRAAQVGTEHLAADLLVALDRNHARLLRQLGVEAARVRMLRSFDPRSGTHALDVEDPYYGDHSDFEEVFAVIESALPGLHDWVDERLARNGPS

In the case of `O=C(Nc1cc(C(F)(F)F)c(Br)c(C(F)(F)F)c1)c1ccc(C(F)(F)P(=O)(O)O)cc1` [Compound 38], the Selectivity (PTP1B) is reported as >70, the Selectivity (Tc-Ptp) is reported as >70 and the Selectivity (LAR) is reported as >70. The Selectivity (CD45) was >70, the Selectivity (Mtb PtpB [1]) was >70 and the Ki (Mtb PtpB [2]) was > 100 µM. The Ki (Mtb PtpB [2]; PtpB) was “did not inhibit”, the “Selectivity for PtpA versus panel of phosphatases” value [3] was > 70 fold and the Selectivity (VHR) was >70. It also gave a Hill coefficient h [4] of −1.0 ± 0.1.

`O=C(Nc1ccc(C(F)(F)P(=O)(O)O)cc1)Nc1cc(C(F)(F)F)cc(C(F)(F)F)c1` [Compound 43] showed a Hill coefficient h [4] of −1.1 ± 0.2.
